According to US20130067618A1, “METHODS AND COMPOSITIONS FOR WEED CONTROL” (priority 2011, published 2013):

What was measured:
[1] = test system: Amaranthus palmeri plants (Palmer amaranth A3); assay: Tiling test of pooled trigger molecules to ALS large subunit gene, followed by Staple; visual injury; format: in vivo
Experimental: Approximately four-week old (3-4 inches tall) greenhouse grown Amaranthus palmeri plants (Palmer amaranth A3) were used in these assays. The plants were spray treated in a greenhouse with the ALStile composition, each composition having six trigger oligonucleotides (Table 3) and a formulation comprising 1 percent Silwet L-77 solution, 2 percent ammonium sulfate and 20 mM sodium phosphate and the concentration of each oligonucleotide was approximately 4 nmol. Spray solutions were prepared the same day as spraying and applied using a track sprayer with a FLATfan nozzle 9501E at 165 psi (pounds/square inch) at a rate of 93 g/ha (grams/hectare). The dsDNA ALStile pool oligonucleotide composition was applied and followed 24 hours later by the herbicide treatment, Staple® (2-Chloro-6-{(4,6-dimethoxy-2-pyrimidinyl)thio}benzoic acid sodium salt, pyrithiobac sodium 85 percent, Dupont, Wilmington, Del.) at 108 g/ha (grams per hectare), five replications per treatment and the data is presented as a visual score of percentage injury determined fourteen days after herbicide application.

[2] = test system: Amaranthus palmeri plants (glyphosate-resistant Palmer amaranth, "R-22"); assay: Topical ssDNA ALS2 promoter oligonucleotide pool followed by Staple herbicide; plant height; format: in vivo; conditions: testing repeated with individual oligonucleotides
Experimental: In this example, growing Amaranthus palmeri plants were treated with a topically applied composition for inducing modulation of a target gene in a plant including (a) an agent for conditioning of a plant to transfer of the polynucleotides and (b) polynucleotides including at least one ssDNA polynucleotide strand including at least one segment of 18-21 contiguous nucleotides of the target gene in sense (S) orientation. […]
Approximately four-week old greenhouse grown Amaranthus palmeri plants (glyphosate-resistant Palmer amaranth, “R-22”) were used in this assays. […] The ssDNA ALS2 oligonucleotide composition was applied and followed 24 hours later by the herbicide treatment, Staple® (2-Chloro-6-{(4,6-dimethoxy-2-pyrimidinyl)thio}benzoic acid sodium salt, pyrithiobac sodium 85 percent, Dupont, Wilmington, Del.) at ¼×(27 g ai/ha (grams active ingredient per hectare) rate for the ssDNA ALS2 oligonucleotide treated plants and 1× rate (108 g ai/ha) for the untreated plants, five replications per treatment and the data is presented as percentage height of the untreated control. Plant height is determined at seven days after herbicide treatment.

[3] = test system: ALS inhibitor resistant Palmer amaranth plants (A3, ALS inhibitor herbicide biotype); assay: ALS_pro_S1 trigger followed by Staple or Classic herbicide on ALS inhibitor resistant plants; format: in vivo, Amaranthus palmeri; conditions: dsDNA trigger, FIG. 2
Experimental: Thus, ssDNA ALS2 oligonucleotide treatment followed by Staple® at 1 h and 24 h caused 50 percent and 60 percent growth reduction, relative to the untreated control, while Staple® alone at 27 (1 h and 24 h) and 108 (24 h) g ai/ha caused 35 percent, 30 percent, and 40 percent growth reduction, respectively. […] ALS_pro 51 dsDNA trigger molecule was applied to ALS inhibitor resistant Palmer amaranth plants (A3, ALS inhibitor herbicide biotype) followed by ALS inhibitor herbicides 1× Staple® at 108 g ai/ha or 2× Classic® (Chlorimuron Ethyl 25DF, Dupont, Willmington, Del., 2× rate is 70 g ai/ha) at +COC (crop oil concentrate) 24 hr after trigger application.

[4] = trigger pool (about 4 nmol each) or formulation, Staple @ 108 g/ha 24 h later, 14 days after herbicide, A3

ALSpro_S1: trigger TCTTCTCCGACTCTCACAA, SEQ ID NO:4202; ssDNA in Table 2, dsDNA in b81, dsRNA in Table 3 (chemistry not fully specified; listed as Amaranthus palmeri)
herbicide enhancing activity relative to the formulation control ([1]; A3 biotype, Staple @ 108 g/ha): herbicide enhancing activity | visual score of percentage injury, avg ([1]; average of five replications, trigger pool or formulation, Staple @ 108 g/ha 24 h later, 14 days after herbicide, A3): 100% | visual score of percentage injury, Rep1 [1, 4]: 100% | visual score of percentage injury, Rep2 [1, 4]: 100% | visual score of percentage injury, Rep3 [1, 4]: 100% | visual score of percentage injury, Rep4 [1, 4]: 100% | visual score of percentage injury, Rep5 [1, 4]: 100% | ALS inhibitor herbicide enhancing activity of the individual trigger molecule [2]: effective trigger molecule | improvement of herbicide activity on ALS inhibitor resistant plants ([3]; then 1x Staple at 108 g ai/ha 24 hr after trigger): substantially improved the activity | improvement of herbicide activity on ALS inhibitor resistant plants ([3]; then 2x Classic (70 g ai/ha) + COC 24 hr after trigger): substantially improved the activity
